Measured values as given in patent US20140249031A1, “MICELLE-COATED CRYSTALLINE PARTICLES” (SYNGENTA LIMITED, priority 2011, published 2014).

Columns and labels:
[1] = Visual release rate test of Bitrex in water; type: physicochemical; conditions: after 15 minutes; 0.4 mg agitated in 10 ml of water
Method: 0.4 mg of sample was agitated in 10 ml of water and observed over 8 hours.

[2] = UV/Vis release rate measurement of Bitrex in water; type: physicochemical; conditions: 100 mg in 40 ml water
Method: 2 ml of the mixture was removed at each time interval for analysis.

SMILES: CC[N+](CC)(CC(=O)Nc1c(C)cccc1C)Cc1ccccc1 [uncoated Bitrex, denatonium benzoate]
- visual release: state of sample in water [1]: fully dissolved
- % release of Bitrex relative to the total content ([2]; 5 minutes): 99.6%
- % release of Bitrex relative to the total content ([2]; 15 minutes): 99.8%
